Values quoted from earlier work as cited in patent publication US11542295B2, “Use of 20-hydroxyecdysone and the derivatives thereof in the treatment of myopathies” (BIOPHYTIS, priority 2017, dated 2023).

Columns and labels:
muscles of rats = details: rats in vivo; cited from earlier work
young athletes = young athletes (Simakin et al., 1988); cited from earlier work
C2C12 mouse myotubes = C2C12 mouse myotubes in vitro; cited from earlier work

CC(C)(O)CC[C@@H](O)[C@](C)(O)[C@H]1CC[C@@]2(O)C3=CC(=O)[C@@H]4C[C@@H](O)[C@@H](O)C[C@]4(C)[C@H]3CC[C@]12C [20-hydroxyecdysone]
effects on protein syntheses in muscles (muscles of rats): stimulant effects | muscle mass (young athletes): increases | effects on protein syntheses (C2C12 mouse myotubes): stimulant effects
